Consider one molecule from US7662860B2 (priority 2003, dated 2010).

The assay has as its target SARS-CoV virus 3CL protease protein (Severe acute respiratory syndrome coronavirus, UniProt P0C6X7). As to the kind of experiment: biochemical. The class given is binding.

Regarding `CN(C)CCCSc1ccccc1NC(=O)C=Cc1ccccc1` [cinanserin, 2′-(3-dimethylaminopropylthio)cinnamanilide], the kd amounted to 0.00993 s⁻¹. Further, the kon (read-out: ka) stood at 38600 M⁻¹ s⁻¹.
